# Experimental data from US20170135981A1, “Method for Suppressing Glucagon Secretion of an SGLT2 Inhibitor” (AstraZeneca AB, priority 2014, published 2017).
# Tested on: glucagon secretion
# Assay: Plasma glucagon during a liquid meal tolerance test (MTT) at week 24, radioimmunoassay, randomized 24-week study
# Assay type: in vivo, human
# Details: summary of Table 1, added to metformin
# Procedure: At the beginning of a 4-week lead-in period, all patients were switched to the nearest metformin XR dose (1,500-2,000 mg/day) for the lead-in period and for the duration of the 24-week treatment period. Patients were then randomized to receive saxagliptin 5 mg/day and dapagliflozin 10 mg/day plus metformin (SAXA+DAPA+MET), saxagliptin 5 mg/day and placebo plus metformin (SAXA+MET), or dapagliflozin 10 mg/day and placebo plus metformin (DAPA+MET) for 24 weeks. Patients were prohibited from receiving other antidiabetic medications (except for open-label rescue medications) during the screening and treatment periods. Postprandial glucose (PPG) was assessed at baseline and week 24 following the administration of a liquid meal tolerance test (MTT, 360-375 kcal; protein, 14-28.2 g; fat, 10.5-14 g; carbohydrates 42-45 g; sugars as a component of carbohydrates, 16.8-22 g, investigation-site dependent). […] The mean change from baseline in the area under the curve from 0 to 180 minutes (AUC0-180 min) was calculated for glucagon obtained during the MTT. Plasma glucagon was measured by radioimmunoassay (LINCO Research, St. Charles, Mo.). AUC0-180 min was calculated based on the trapezoidal rule from model-based estimates of the mean at each time point, including observations prior to rescue. […]
smiles,measurement,value
CCOc1ccc(Cc2cc([C@@H]3O[C@H](CO)[C@@H](O)[C@H](O)[C@H]3O)ccc2Cl)cc1 [dapagliflozin],effect on glucagon levels (in words),increased compared to control
